Measured values reported in patent US7776873B2, “Method for treating damage to gastric mucosa” (Yuhan Corporation, priority 2005, dated 2010).

Legend:
[1] = tested on: NF-kB (nuclear factor-kappa B); assay: DNA binding activity of NF-kB after H. pylori infection (EMSA); format: cell-based, human; details: FIG. 5
Method: The DNA binding activity of NF-kB (nuclear factor-kappa B), a redox-sensitive transcription factor known to be associated with H. pylori infection was evaluated using EMSA. Rebamipide (50 μM), known to have cytoprotective properties, was used as a control drug, and revaprazan (25 μM) was used as a test drug. The human gastric epithelial (AGS, KCLB 21739) cells were seeded in culture dishes at 2×10^6 cells/100 mm^2 and cultured in RPMI 1640 (Gibco BRL, Grand Island, N.Y., U.S.A.), supplemented with 100 units/mL penicillin, 100 ug/mL streptomycin, and 10% FBS (Fetal Bovine Serum). […] The culture media were removed and the cells were twice washed with PBS (137 mM NaCl, 2.7 mM KCl, 10 mM Na2HPO4, and 2 mM KH2PO4). For inoculation, H. pylori (ATCC 43504) cultures were resuspended in PBS and cocultured with AGS cells at a final concentration of 5×10^8 CFU/ml at 37° C. for one hour. The nuclear fractions for EMSA were prepared using the NE-PER Nuclear and the Cytoplasmic Extraction Kit (Pierce, Rockford, Ill., U.S.A.). Sequences of double-stranded oligonucleotides used for EMSA of NF-kB were as follows; [NT], and the oligonucleotides were labeled with a Biotin 3' End DNA Labeling Kit (Pierce, Rockford, Ill., U.S.A.). The EMSA was performed with a Light Shift Chemiluminescent EMSA Kit (Pierce, Rockford, Ill., U.S.A.).

[2] = tested on: heat-shock proteins, HO-1, HSP27, HSP70; assay: Expression of heat-shock proteins in indomethacin-treated cells (Western blotting); format: cell-based, rat; details: RGM-1 cells, 5, 10 and 25 uM for 16 hours, then indomethacin 0.5 uM 16 hours, FIG. 7
Method: To measure expression of heat-shock proteins, HO-1, HSP27, HSP70, cells were pretreated with concentrations of 5, 10, and 25 μM revaprazan, and then treated with indomethacin (a NSAID, 0.5 μM).
The rat gastric mucosal (RGM-1, RIKEN cell bank, Japan) cells were seeded in culture dishes at 2×10^6 cells/100 mm^2 and cultured in DMEM-F12 (Gibco BRL, Grand Island, N.Y., U.S.A.), supplemented with 100 units/mL penicillin, 100 ug/mL streptomycin, and 10% FBS (Fetal Bovine Serum). RGM-1 cells were pretreated with revaprazan (5, 10, and 25 uM) and cultured 37° C. for 16 hours. The culture media were removed and the cells were washed three times with PBS (137 mM NaCl, 2.7 mM KCl, 10 mM Na2HPO4, and 2 mM KH2PO4). A solution of indomethacin in sterilized water was added to the cells to reach a final concentration of 0.5 uM, and the cells were incubated at 37° C. for 16 hours. After incubation, the cells were resuspended in a lysis buffer (20 mM Tris-Cl (pH 7.5), 150 mM NaCl, 1% Triton X-100, 1 mM EDTA, and protease inhibitor cocktail (Roche, Mannheim, Germany)). The suspension was sonicated for approximately 10 seconds, four times using the BIORUPTOR (Cosmo Bio, Koto-ku, Tokyo), and centrifuged at 4° C., 12000 rpm for 30 minutes. […]

[3] = tested on: indomethacin-induced gastric mucosal lesions; assay: Treatment effect on NSAID-induced gastropathy; format: in vivo, Sprague Dawley male rats; details: rats, 5 mg/kg and 10 mg/kg given 8 hours after indomethacin 40 mg/kg, for one hour, FIG. 9
Method: Six-week old specific-pathogen-free (SPF) Sprague Dawley male rats (Charles River, Tokyo, Japan) were used for experiments. The rats were fed a sterilized commercial pellet diet (Biogenomics Co., Seoul, Korea), given sterile water ad libitum, and housed in air-conditioned biohazard room with a 12-h light:12-h dark cycle. The rats were food-deprived 24 hours, and then treated with 1 ml of a solution of indomethacin (40 mg/kg) in 0.5% CMC (carboxymethylcellulose) via oro-gastric tube. 8 hours after the indomethacin treatment, the rats were treated with 1 ml of a solution of revaprazan (5 mg/kg and 10 mg/kg) in 0.5% CMC for one hour, and the degree of gastropathy was determined in the same manner as in Example 8.

Cc1nc(Nc2ccc(F)cc2)nc(N2CCc3ccccc3C2C)c1C (centres unmarked) [revaprazan, 5,6-dimethyl-2-(4-fluorophenylamino)-4-(1-methyl-1,2,3,4-tetrahydroisoquinolin-2-yl)pyrimidine]
NF-kB activity (DNA binding) ([1]; AGS cells, 25 uM pretreatment for 16 hours, then H. pylori one hour): significantly inhibited | cytoprotective effect (NF-kB inhibition) compared with rebamipide ([1]; revaprazan 25 uM vs rebamipide 50 uM): equal to or greater than rebamipide | expression of heat-shock proteins [2]: stimulating expression | gastric mucosal hemorrhagic lesions after treatment [3]: remarkably improved | number of erosions and ulcers [3]: reduced
